Test results published in patent US20240285784A1, “PEPTIDIC CONJUGATES OF SN38 USEFUL IN THE TREATMENT OF CANCER” (FUNDACIÓ INSTITUT DE RECERCA BIOMÈDICA (IRB BARCELONA), priority 2020, published 2024).
Values after ≈ are worked out from the molar mass of the structure shown. Where a SMILES comes first, the peptide text is derived from it. Bridges are numbered along the chain shown (N, C = ends). [ ]: non-standard residue; d: D form. The star is where a group is joined. X6 = CCc1c2c(nc3ccc(OC(=O)OCc4ccc(NC(=O)[C@H](CCCNC(N)=O)NC(=O)[C@@H](NC(=O)COCC(=O)*)C(C)C)cc4)cc13)-c1cc3c(c(=O)n1C2)COC(=O)[C@]3(O)CC; X7 = CCc1c2c(nc3ccc(OC(=O)*)cc13)-c1cc3c(c(=O)n1C2)COC(=O)[C@]3(O)CC; Nva = CCC[C@H](N)C(=O)O; Dap = NC[C@H](N)C(=O)O

Assays:
[1] = Evaluation of solubility in water; format: physicochemical; conditions: at 1 mg/mL
Procedure: 25 mg of SN38-linker A-MiniAp4 were dissolved in H2O, showing a completely transparent solution. This means that SN38-linker A-MiniAp4 has a solubility in water higher than 5 mg/mL, more than 400-fold the solubility in water described for SN38 (Mol. Pharmaceutics, 2016, 13, 379-390).

[2] = Turbidimetric aqueous solubility; format: physicochemical; conditions: 37 °C, pH 7.4, aqueous buffer, kinetic from dmso stock, Turbidity aqueous solubility, Estimated precipitation range
Procedure: Each test compound concentration was then further diluted 1 in 100 in buffer (0.01 M phosphate buffered saline pH 7.4) so that the final DMSO concentration was 1% and the final test compound concentrations were 1, 3, 10, 30 and 100 μM. The experiment was performed at 37° C. and each concentration was incubated in 7 replicate wells. The plates were incubated for 2 hr at 37° C. before the absorbance was measured at 620 nm.

solubility at 2 h ([2]; Calculated mid-range) [µM] | solubility at 2 h ([2]; Lower bond) [µM] | solubility at 2 h ([2]; Upper bond) [µM] | Structure (SMILES) | solubility in water [1]
 |  |  | CCc1c2c(nc3ccc(OC(=O)OCc4ccc(NC(=O)[C@H](CCCNC(N)=O)NC(=O)[C@@H](NC(=O)COCC(=O)N[C@H]5CNC(=O)C[C@@H](C(N)=O)NC(=O)[C@H](CC(C)C)NC(=O)[C@H](C)NC(=O)[C@H]([C@@H](C)O)NC(=O)[C@H](CCC(=O)O)NC(=O)[C@@H]6CCCN6C(=O)[C@H](C)NC(=O)[C@H](CCCCN)NC5=O)C(C)C)cc4)cc13)-c1cc3c(c(=O)n1C2)COC(=O)[C@]3(O)CC [G2B-004 (Id)] (X6-[Dap]KAPETALD-NH2; lactam 1-9) | good solubility
 |  |  | CCC[C@H](NC(=O)CNC(=O)Oc1ccc2nc3c(c(CC)c2c1)Cn1c-3cc2c(c1=O)COC(=O)[C@]2(O)CC)C(=O)N1CCC[C@H]1C(=O)NCC(=O)N[C@H]1CNC(=O)C[C@@H](C(N)=O)NC(=O)[C@H](CC(C)C)NC(=O)[C@H](C)NC(=O)[C@H]([C@@H](C)O)NC(=O)[C@H](CCC(=O)O)NC(=O)[C@@H]2CCCN2C(=O)[C@H](C)NC(=O)[C@H](CCCCN)NC1=O [G2B-005 (Ie)] (X7-G[Nva]PG[Dap]KAPETALD-NH2; lactam 5-13) | good solubility
11.5 (≈ 5.51 µg/mL) | 3 (≈ 1.44 µg/mL) | 20 (≈ 9.59 µg/mL) | COC(=O)C1=C(C)NC(C)=C(C(=O)OCCN(C)Cc2ccccc2)C1c1cccc([N+](=O)[O-])c1 (centres unmarked) [Nicardipine, reference compound] | 
